Data as given in US7687079B2, “Methods of treating ileus” (priority 2002, dated 2010).

Columns and labels:
[1] = general observations after intestinal manipulation and CO exposure; format: in vivo, mouse; conditions: mice, CO 250 ppm, 1 hour before and 24 hours after laparotomy
Source text: Surgical Manipulation. Mice were anesthetized with inhaled isoflurane and the abdomen opened by midline laparotomy. The small intestine was eventrated and gently compressed along its entire length using moistened sterile cotton applicators. This procedure is designed to simulate “running” of the bowel commonly performed during abdominal surgery in the clinical setting. The bowel was repositioned in the abdominal cavity and the incision closed by two layers of continuous sutures. The duration of the procedure was approximately 15 minutes and the animals moved freely about their cage within 20 minutes of withdrawal of anesthetic.
CO Inhalation Treatment. Mice housed in cages were placed in plexiglass chambers that were continuously ventilated with air or with air containing CO (250 ppm). A sampling port was provided to continuously monitor carbon monoxide concentrations within the chamber. Animals had free access to food and water at all times. Mice were exposed to CO or air 1 hour prior to laparotomy, removed for surgical manipulation, and then returned to the chamber for 24 hours. Mice not undergoing surgery were removed from the chamber for a similar length of time and then returned to the chamber for 24 hours.

[2] = test system: COX-2 mRNA; assay: COX-2 mRNA in muscularis after IM (real time RT-PCR); format: in vivo, mouse
Protocol: Pro- and anti-inflammatory gene expression was determined by real time RT-PCR. The small intestinal muscularis externa was collected at 4 time points (3, 6, 12, and 24 hr) postoperatively and snap frozen in liquid nitrogen. Total RNA extraction was performed using the guanidium-thiocyanate phenol-chloroform extraction method as described in Eskandari et al. (Id.) RNA pellets were resuspended in RNA-secure resuspension solution (Ambion Inc., Austin, Tex.), followed by removal of potential contaminating DNA by treatment with DNase I (DNA-Free Kit, Ambion Inc., Austin, Tex.). Equal aliquots (5 μg) of total RNA from each sample were quantified by spectrophotometry (wavelength […]). Peak mRNA expression was quantified in duplicate by SYBR Green two-step, real-time RT-PCR. β-actin was used as the endogenous reference. Aliquoted RNA (40 ng) was subjected to first-strand complementary DNA (cDNA) synthesis using random hexamers (PE applied Biosystems, Foster City, Calif.) and Super Script II (Life Technologies, Rockville, Md.). Primers were taken from the literature or designed according to published sequences (Table 3). PCR reaction mixture was prepared using SYBR Green PCR Core Reagents (PE Applied Biosystems). Each sample was estimated in duplicate using the conditions recommended by the manufacturer. Real-time PCR data were plotted as the ΔRn fluorescence signal versus the cycle number. An arbitrary threshold was set to the midlinear portion of the log ΔRn cycle plot. The threshold cycle (CT) is defined as the cycle number at which the ΔRn, crosses this threshold. Quantification of mRNA expression was normalized to β-actin and calculated relative to control using the comparative CT method.
To exclude PCR amplification of contaminating genomic DNA, RT-negative controls (samples containing RNA which was not reverse transcribed) were included in each PCR reaction. Melting curve analyses were performed for each reaction to ensure amplification of specific product. […] PCR amplification efficiency of each target cDNA was measured by determining the colinearity of serial dilutions. […]

[3] = test system: COX-2 mRNA; assay: COX-2 mRNA expression in muscularis of transplanted grafts (real time RT-PCR); format: in vivo, rat; conditions: CO-treated SITx rats, 4 hours after reperfusion
Protocol: (§1) The effects of inhalation of CO on transplant-induced pro-inflammatory and anti-inflammatory gene expression was assessed in muscularis extracts by RT-PCR. Muscularis extemae was collected from normal intestine and transplanted grafts 4 hours postoperatively and snap frozen in liquid nitrogen. This time point falls within the range of maximum inflammatory mediator expression that occurs between 3 and 6 hours following abdominal incision. Total RNA extraction was performed using the guanidium-thiocyanate phenol-chloroform extraction method as described previously (Eskandari et al., Am. J. Clin. Pathol. 75(3):367-370 (1997)). RNA pellets were resuspended in RNA-secure resuspension solution (Ambion Inc., Austin, Tex.), followed by removal of potentially contaminating DNA by treatment with DNase I (DNA-Free Kit, Ambion Inc., Austin, Tex.). Equal aliquots (5 μg) of total RNA from each sample were quantified by spectrophotometry (wavelength […]) and aliquoted at a concentration of 40 ng/μl. Peak mRNA expression was quantified in duplicate by SYBR Green two-step, real-time RT-PCR. […] Real-time PCR data were plotted as the ΔRn, fluorescence signal versus the cycle number. […] Quantification of mRNA expression was normalized to GAPDH and calculated relative to control using the comparative CT method (Schmittgen et al., J. Biochem. Biophys. Methods 46(1-2):69-8 (2000)). […]

[4] = test system: iNOS mRNA; assay: iNOS mRNA expression in muscularis of transplanted grafts (real time RT-PCR); format: in vivo, rat; conditions: CO-treated SITx rats, 4 hours after reperfusion; p=0.060
Protocol: as §1

SMILES: [C-]#[O+] [CO, carbon monoxide]
- mortality or morbidity associated with the CO exposure regime [1]: No mortality or morbidity
- IM-induced COX-2 gene expression ([2]; IM + CO, 3 or 6 hr time points): no effect
- COX-2 mRNA expression ([2]; control animals, CO inhalation, 3 hr post-treatment): significantly increased
- induction of COX-2 message ([2]; unoperated control mice, CO inhalation alone, 3 hr): 2.5 fold
- reduction of mean relative COX-2 mRNA expression [3]: approximately 50%
- reduction of mean relative iNOS mRNA expression [4]: approximately 50%
